Test results reported in patent publication US20050261260A1, “Combination of a CDK inhibitor and mitoxantrone” (Cyclacel Limited, priority 2002, published 2005).
In brackets after ≈: the same amount, converted by molar mass. Several values for one entry are separate records, joined by “and”; a condition that tells them apart may be missing. Equal entries are not always repeated. Where two headings read alike, the source gives them in different places.

Assays:
[1] = system: prostate tumor cells (PC-3); assay: cells; conditions: Homo sapiens, 24 h, read-out: IC50 (concentration listed as 100 % IC50), PC-3
[2] = system: prostate tumor cells (PC-3)
[3] = concurrent 24 h exposure, % IC50 0/100: roscovitine 0, mitox. 12.50 ng/ml
[4] = mitoxantrone 24 h then roscovitine 24 h, % IC50 0/100: roscovitine 0, mitox. 15.00 ng/ml
[5] = roscovitine 24 h then mitoxantrone 24 h, % IC50 0/100: roscovitine 0, mitox. 10.00 ng/ml
[6] = mitoxantrone 24 h then roscovitine 24 h, % IC50 100/0: roscovitine 30.00 ug/ml, mitox. 0

Compound | IC50 ([1]; Table 3, roscovitine 24 h then mitoxantrone 24 h) [µg/mL] | IC50 ([1]; Table 5, mitoxantrone 24 h then roscovitine 24 h) [µg/mL] | IC50 ([1]; Table 7, concurrent 24 h exposure) [µg/mL] | % Abs [2, 3] | % Response [2, 3] [%] | Mean (absorbance) [2, 3] | Well 1-3 (absorbance) [2, 3] | % Abs [2, 4] [%] | % Response [2, 4] [%] | Mean (absorbance) [2, 4] | Well 1-3 (absorbance) [2, 4] | % Abs [2, 5] [%] | % Response [2, 5] [%] | Mean (absorbance) [2, 5] | Well 1-3 (absorbance) [2, 5] | % Abs [2, 6] [%] | % Response [2, 6] [%] | Mean (absorbance) [2, 6] | Well 1-3 (absorbance) [2, 6]
O=C1c2c(O)ccc(O)c2C(=O)c2c(NCCNCCO)ccc(NCCNCCO)c21 [Mitoxantrone, 1,4-dihydroxy-5,8-bis[{2-[(2-hydroxyethyl)amino]ethyl}amino]-9,10-anthracendione] | 0.01 (≈ 0.0225 µM) | 0.015 (≈ 0.0337 µM) | 0.0125 (≈ 0.0281 µM) | 51.8% and 54.7% | 45.3 | 0.418 | 0.415 and 0.424 and 0.414 | 47.0 | 53.0 | 0.367 | 0.373 and 0.371 and 0.358 | 62.7 | 37.3 | 0.501 | 0.532 and 0.487 and 0.483 |  |  |  | 
CC[C@H](CO)Nc1nc(NCc2ccccc2)c2ncn(C(C)C)c2n1 [Roscovitine, 6-benzylamino-2-[(R)-1-ethyl-2-hydroxyethylamino]-9-isopropylpurine] |  |  |  |  |  |  |  |  |  |  |  |  |  |  |  | 21.9 | 78.1 | 0.171 | 0.165 and 0.162 and 0.186
